In assay [1] the test system is db/db mice. As to the kind of experiment: Weekly fasting glucose levels in db/db mice. The format is in vivo, mouse. To be noted: GW1929 5 mg/kg, N931 375 mg/kg. The method, then:
Fasting glucose levels of male db/db mice (8 mice in each group) treated with GW1929 (5 mg/kg), N931 (375 mg/kg) and vehicle were measured weekly. Animals were provided with T2018 rodent diet ad libitum except when fasting. Animals were fasted overnight before measurements were taken.

For assay [2], the system named is high fat diet induced C57BL/6J mice. As to the kind of experiment: Intraperitoneal insulin tolerance test, UP780 dose-range study. To be noted: after 10 weeks of daily oral treatment; P≦0.05. The format is in vivo, mouse. Here is the method:
Once an induction of the disease on animals after 8 weeks of high fat diets was confirmed by monitoring of selected parameters, daily oral treatment was initiated. On each day, the test articles and the positive control GW1929 (Tocris Bioscience, Ellisville, Mo., Batch #2A/58705) were dissolved in 0.5% methylcellulose (Sigma, St. Louise Mo., Lot#116H0857) and delivered at an oral dose of 100, 200 and 400 mg/kg of UP780 (Lot # L1806QMAW-01); 400 mg/kg of Qmatrix® Aloe vera gel powder (QM400, Lot# G6319103-L3) as well as 5 mg/kg of GW1929. As GW1929 was not completely solublized in methylcellulose, it was first dissolved in DMSO (Sigma, St. Louis, Mo., Batch#064K0067). The final concentration of test compounds, including the vehicle, was then adjusted to contain 5% DMSO before drug administration. The carrier vehicle treated animals received 0.5% methylcellulose only. No detectable sign of irritation was observed after each drug or vehicle administration. […]
An intraperitoneal glucose tolerance test was conducted on day 0 (baseline), weeks 3, and 9 after onset of treatment. […] Blood glucose levels were determined at time 0 (before glucose injection), 30, 60, 90, and 120 minutes post glucose delivery. […] Blood glucose levels were determined at time 0 (before insulin injection), 30, 60, 90, and 120 minutes after insulin administration. […]

Assay [3] relates to C57BL/6J mice fed high fat diet. The experiment in a line: Intraperitoneal glucose tolerance test, high-fat diet induced model (UP394/UP396). The assay is classed as in vivo, mouse. To be noted: day 18; times 60, 90 and 120 minutes; p<0.05; GW1929 5 mg/kg, UP396 100 mg/kg intraperitoneally. The text has this:
A high-fat diet induced animal model was developed and used for evaluation of potential therapeutic effects of chromone extracts. The C57BL/6J is a clinically relevant animal model that can be used in studies on metabolic disorders, pathophysiology of impaired glucose tolerance and for development of novel therapeutic agents (Ahren et al. (2004) Diabetes 53 (Supplement 3):S215-S219; Laakso et al. (2004) Diabetes Care 27:2253-2259; Kahn et al. (2004) Diabetes 53:3274-3285; Scheurink et al. (1998) European J Endo. 139:461-467; Yuan et al. (2002) Diabetes 51:1851-1858; Reitman et al. (2005) Endocrinology 145:3258-3264; Vlassara et al. (2005) Diabetes 54:2314-2319; Cawthome et al. (2002) Molecular and Cellular Proteomics 1:509-516). Methodology of model induction was first explained by Surwit et al. in 1988 (Diabetes, 37:1163-1167). […] Blood glucose, cholesterol, and triglyceride were monitored every week for 12 weeks as described previously. […]
An intraperitoneal glucose tolerance test was conducted using the C57BL/6J mice as described in Example 12 at a dose of 2 g/kg on day 18 of treatment with intraperitoneal administration of GW1929 (5 mg/kg), UP394 (100 mg/kg), UP396 (100 mg/kg) and vehicle. […] Blood glucose levels were measured at time 0, 30, 60, 90, and 120 minutes. […]

For assay [4], the system named is diabetic animal models. The following applies: administered orally; Brown et al. (1999), Way et al. (2001); cited from earlier work.

These results are taken from US8852657B2, “Chromones as therapeutic agents” (Unigen, Inc., priority 2007, dated 2014).

Turning to `CN(CCOc1ccc(C[C@H](Nc2ccccc2C(=O)c2ccccc2)C(=O)O)cc1)c1ccccn1` [GW1929, N-(2-Benzoylphenyl)-O-[2-(methyl-2-pyridinylamino)ethyl]-L-tyrosine], the “course of fasting glucose level during 10-week treatment” value in assay [1] (starting from week 5) is reported as “maintain the glucose levels at the baseline level”. The “fasting blood glucose levels compared to vehicle” value in assay [1] (weeks 6, 7, 9 and 10, P<0.05) is recorded as “significantly lower”. Also, the “significant differences in intraperitoneal insulin tolerance test vs vehicle” value in assay [2] is given as “after 1 hour insulin injection”. Also, the “glucose utilization in intraperitoneal glucose tolerance test compared to vehicle” value in assay [3] is “Significant glucose utilization”. Further, the “glucose, fatty acids and triglyceride levels” value in assay [4] is “decreases glucose, fatty acids and triglyceride levels”.
